These results are taken from article PMC6013247, “Preclinical characterization of INCB053914, a novel pan-PIM kinase inhibitor, alone and in combination with anticancer agents, in models of hematologic malignancies” (PLoS ONE, 2018).

The target of one test is PIM1 (Homo sapiens, UniProt P11309). The experiment in a line: PIM1 AlphaScreen kinase assay. It is filed as biochemical. Conditions: 1 mM ATP; read-out: Mean (SD) IC50. Here is the method:
The activity of INCB053914 against the PIM1 and PIM3 kinases was measured using AlphaScreen® assays (PerkinElmer, Inc., Shelton, Connecticut), and against PIM2 kinase using a time-resolved fluorescence resonance energy transfer assay (see Supporting Information, S1 File)
AlphaScreen assay. Reactions (20 μl) were carried out in white 384-well polystyrene plates (Greiner Bio-One, Kremsmünster, Austria) dotted with 0.8 μl of the compound in dimethylsulfoxide in the assay buffer (50 mM Tris, pH 7.5, 0.01% Tween-20, 5 mM MgCl2, 0.01% bovine serum albumin [BSA], 5 mM dithiothreitol) containing 0.05 μM Biotin-labeled Bcl-2–associated death promoter protein peptide substrate (AnaSpec, Fremont, California), 1 mM ATP, and 2.5 pM PIM1 (Invitrogen, Thermo Fisher Scientific, Waltham, Massachusetts), or 1.25 pM PIM3 (Millipore, Billerica, Massachusetts) enzyme. […] After the reactions were stopped, the plates were incubated for 1 hour in the dark at room temperature and then read on a PHERAstar FS plate reader (BMG Labtech, Cary, North Carolina) under reduced light.
On the technique in general: In Alpha technology, singlet oxygen from a donor bead excites a nearby acceptor bead.

The next test deals with RSK2 (Homo sapiens, UniProt P51812). The experiment in a line: Kinase selectivity panel. Format: biochemical.
RSK2, sequence (P51812 whole entry): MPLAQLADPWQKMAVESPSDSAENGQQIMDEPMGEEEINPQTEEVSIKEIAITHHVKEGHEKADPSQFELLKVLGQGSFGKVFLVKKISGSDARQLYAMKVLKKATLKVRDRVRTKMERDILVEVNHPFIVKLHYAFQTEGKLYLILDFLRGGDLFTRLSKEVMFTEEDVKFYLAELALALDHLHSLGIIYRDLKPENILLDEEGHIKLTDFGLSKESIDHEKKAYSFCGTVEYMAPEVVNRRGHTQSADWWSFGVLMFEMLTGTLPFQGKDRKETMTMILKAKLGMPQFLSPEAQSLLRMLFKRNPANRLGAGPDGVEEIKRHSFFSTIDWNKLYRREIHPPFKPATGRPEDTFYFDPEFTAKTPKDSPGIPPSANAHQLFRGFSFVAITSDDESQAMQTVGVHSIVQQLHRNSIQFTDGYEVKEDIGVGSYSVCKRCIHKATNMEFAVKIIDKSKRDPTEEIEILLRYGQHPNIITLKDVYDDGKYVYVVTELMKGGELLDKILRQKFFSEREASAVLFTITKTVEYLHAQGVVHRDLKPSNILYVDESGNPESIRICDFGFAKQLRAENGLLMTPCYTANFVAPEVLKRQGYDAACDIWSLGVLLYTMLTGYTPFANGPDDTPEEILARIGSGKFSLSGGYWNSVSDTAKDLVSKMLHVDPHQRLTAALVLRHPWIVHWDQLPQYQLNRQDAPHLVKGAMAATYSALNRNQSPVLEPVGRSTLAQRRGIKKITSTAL
A further test has as its target BRAF (Homo sapiens, UniProt P15056). The experiment in a line: Kinase selectivity panel. It is filed as biochemical. Conditions: [ATP] = 1 mM.
The next test has as its target CAMK2D (Homo sapiens, UniProt Q13557). Put plainly: Kinase selectivity panel. It is filed as biochemical. Conditions: [ATP] = 1 mM.
Another test deals with CHEK1 (Homo sapiens, UniProt O14757). Put plainly: Kinase selectivity panel. Particulars: [ATP] = 1 mM. Format: biochemical.
The next test concerns the target EPHB4 (Homo sapiens, UniProt P54760). Put plainly: Kinase selectivity panel. Format: biochemical. Conditions: [ATP] = 1 mM.
In the next test the target is MINK (Homo sapiens, UniProt Q8N4C8). Put plainly: Kinase selectivity panel. It is filed as biochemical. Conditions: [ATP] = 1 mM.
MINK, sequence (Q8N4C8 whole entry): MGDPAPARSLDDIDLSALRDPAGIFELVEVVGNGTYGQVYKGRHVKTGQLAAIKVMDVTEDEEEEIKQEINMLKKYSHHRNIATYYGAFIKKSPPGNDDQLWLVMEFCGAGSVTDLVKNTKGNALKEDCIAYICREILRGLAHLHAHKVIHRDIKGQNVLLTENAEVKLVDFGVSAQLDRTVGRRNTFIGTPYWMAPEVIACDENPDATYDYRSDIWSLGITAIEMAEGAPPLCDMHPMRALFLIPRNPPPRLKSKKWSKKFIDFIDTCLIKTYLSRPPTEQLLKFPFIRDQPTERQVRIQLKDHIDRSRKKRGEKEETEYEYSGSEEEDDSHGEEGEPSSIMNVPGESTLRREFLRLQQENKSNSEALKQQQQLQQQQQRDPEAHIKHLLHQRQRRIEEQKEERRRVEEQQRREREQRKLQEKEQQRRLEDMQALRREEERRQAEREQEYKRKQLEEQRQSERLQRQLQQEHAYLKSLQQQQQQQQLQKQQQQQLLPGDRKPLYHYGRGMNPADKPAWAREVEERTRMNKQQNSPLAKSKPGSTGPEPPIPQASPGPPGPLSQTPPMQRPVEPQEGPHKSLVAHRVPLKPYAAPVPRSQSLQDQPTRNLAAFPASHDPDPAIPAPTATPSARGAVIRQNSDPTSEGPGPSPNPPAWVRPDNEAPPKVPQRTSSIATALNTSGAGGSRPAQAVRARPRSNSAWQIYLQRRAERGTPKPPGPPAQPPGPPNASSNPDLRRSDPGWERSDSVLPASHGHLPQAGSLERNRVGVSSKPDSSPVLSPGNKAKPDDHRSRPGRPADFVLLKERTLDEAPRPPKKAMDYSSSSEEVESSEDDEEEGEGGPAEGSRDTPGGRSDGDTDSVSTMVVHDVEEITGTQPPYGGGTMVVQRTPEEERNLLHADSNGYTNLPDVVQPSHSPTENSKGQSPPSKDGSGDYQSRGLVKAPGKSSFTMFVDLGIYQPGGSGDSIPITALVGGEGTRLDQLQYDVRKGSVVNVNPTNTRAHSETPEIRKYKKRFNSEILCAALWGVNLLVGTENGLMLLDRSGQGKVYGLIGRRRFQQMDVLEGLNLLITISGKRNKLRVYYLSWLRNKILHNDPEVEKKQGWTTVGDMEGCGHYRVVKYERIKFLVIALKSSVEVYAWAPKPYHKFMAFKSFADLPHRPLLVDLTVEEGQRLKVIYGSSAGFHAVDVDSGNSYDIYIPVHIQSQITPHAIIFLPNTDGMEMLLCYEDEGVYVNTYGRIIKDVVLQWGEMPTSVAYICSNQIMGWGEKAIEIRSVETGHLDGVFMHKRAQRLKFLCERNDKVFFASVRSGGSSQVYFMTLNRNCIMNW
The target in the next test is NLK (Homo sapiens, UniProt Q9UBE8). Put plainly: Kinase selectivity panel. Format: biochemical. Conditions: [ATP] = 1 mM.
NLK, sequence (Q9UBE8 whole entry): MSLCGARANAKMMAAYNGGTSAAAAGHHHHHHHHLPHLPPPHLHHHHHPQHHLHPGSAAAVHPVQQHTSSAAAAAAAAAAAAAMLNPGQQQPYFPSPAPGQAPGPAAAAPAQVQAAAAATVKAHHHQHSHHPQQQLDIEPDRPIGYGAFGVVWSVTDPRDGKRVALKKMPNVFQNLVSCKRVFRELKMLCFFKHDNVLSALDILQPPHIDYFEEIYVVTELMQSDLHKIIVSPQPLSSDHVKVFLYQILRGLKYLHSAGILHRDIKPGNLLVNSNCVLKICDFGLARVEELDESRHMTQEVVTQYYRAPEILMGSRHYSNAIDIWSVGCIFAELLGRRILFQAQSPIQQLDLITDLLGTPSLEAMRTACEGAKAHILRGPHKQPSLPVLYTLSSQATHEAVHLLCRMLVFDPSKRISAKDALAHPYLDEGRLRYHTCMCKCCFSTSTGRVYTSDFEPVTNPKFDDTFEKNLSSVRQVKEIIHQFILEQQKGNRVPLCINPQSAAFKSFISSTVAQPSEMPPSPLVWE
The target in another test is PAK4 (Homo sapiens, UniProt O96013). Put plainly: Kinase selectivity panel. Format: biochemical. Particulars: [ATP] = 1 mM.
PAK4, sequence (O96013 whole entry): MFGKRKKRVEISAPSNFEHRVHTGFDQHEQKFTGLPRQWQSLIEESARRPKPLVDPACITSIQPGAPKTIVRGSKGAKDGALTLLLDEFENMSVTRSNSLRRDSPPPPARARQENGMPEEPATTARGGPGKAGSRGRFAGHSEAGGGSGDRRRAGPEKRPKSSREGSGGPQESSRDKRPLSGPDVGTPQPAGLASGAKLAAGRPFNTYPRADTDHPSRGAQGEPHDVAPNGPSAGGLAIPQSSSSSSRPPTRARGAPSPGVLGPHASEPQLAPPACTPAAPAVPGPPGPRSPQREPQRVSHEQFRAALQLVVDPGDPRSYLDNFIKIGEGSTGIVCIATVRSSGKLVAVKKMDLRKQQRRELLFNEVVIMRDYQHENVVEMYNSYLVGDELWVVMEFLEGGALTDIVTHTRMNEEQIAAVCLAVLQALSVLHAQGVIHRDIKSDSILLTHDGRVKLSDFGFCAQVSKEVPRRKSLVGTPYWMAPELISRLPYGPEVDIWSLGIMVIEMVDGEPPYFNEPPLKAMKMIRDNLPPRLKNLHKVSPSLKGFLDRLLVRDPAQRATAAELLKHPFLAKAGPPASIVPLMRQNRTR
For the next test, the target named is RPS6KB1 (Homo sapiens, UniProt P23443). The experiment in a line: Kinase selectivity panel. Format: biochemical. Particulars: [ATP] = 1 mM.
RPS6KB1, sequence (P23443 whole entry): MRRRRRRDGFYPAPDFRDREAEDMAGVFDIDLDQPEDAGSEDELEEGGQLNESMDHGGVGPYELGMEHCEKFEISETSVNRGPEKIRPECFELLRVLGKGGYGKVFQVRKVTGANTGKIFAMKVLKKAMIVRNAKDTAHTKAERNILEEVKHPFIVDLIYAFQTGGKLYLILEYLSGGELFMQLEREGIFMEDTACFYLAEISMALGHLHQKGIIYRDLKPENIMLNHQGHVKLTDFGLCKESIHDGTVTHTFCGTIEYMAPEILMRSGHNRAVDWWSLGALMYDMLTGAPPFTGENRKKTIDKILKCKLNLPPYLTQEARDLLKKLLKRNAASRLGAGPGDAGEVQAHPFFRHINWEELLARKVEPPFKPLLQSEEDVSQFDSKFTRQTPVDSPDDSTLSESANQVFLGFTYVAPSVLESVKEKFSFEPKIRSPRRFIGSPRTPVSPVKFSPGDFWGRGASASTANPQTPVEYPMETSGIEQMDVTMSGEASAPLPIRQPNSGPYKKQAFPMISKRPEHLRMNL
Test [1] relates to PIM kinase substrates (p70S6K/S6 and 4E-BP1) in MOLM-16, Pfeiffer and KMS-12-PE/BM cell lines. Put plainly: Western blot of PIM kinase substrate phosphorylation in cell lines. It is filed as cell-based. Particulars: MOLM-16 (AML), Pfeiffer (DLBCL), KMS-12-PE/BM (MM); 0 to 1 μM, 2 hours. Here is the method: Inhibition of PIM kinase substrate phosphorylation (BAD, S6, p70S6K, and 4E-BP1) and the upregulation of PIM2 (chosen because of its reduced susceptibility to in vitro kinase inhibition) by INCB053914 was determined by incubating 10^6 MOLM-16 (AML), Pfeiffer (DLBCL), KMS-12-PE (MM), and KMS-12-BM (MM) cells with INCB053914 at concentrations ranging from 0 (phosphate-buffered saline [PBS]) to 1 μM for 2 hours in Roswell Park Memorial Institute (RPMI) medium. Cells were centrifuged at 1,000 rpm for 10 minutes and lysed with 1× lysis buffer (Cell Signaling Technology, Danvers, Massachusetts) supplemented with 1 mM phenylmethane sulfonyl fluoride (Sigma-Aldrich, St Louis, Missouri) and proteinase inhibitor cocktail (CalBiochem, San Diego, California). Cell lysates were stored at –80°C before determining phosphoprotein and PIM2 levels by Western blotting using anti-pBAD (S112), anti-p4E-BP1 (S65), pp70S6K (T389), pS6 (S285/S286), and anti-PIM2 antibodies (Cell Signaling Technology).
On the technique in general: In western blotting, separated proteins are transferred to a membrane and probed.

The test system of another test is PIM2 expression in PBMCs. The experiment in a line: PIM2 expression in PBMCs from whole blood of patients with AML treated ex vivo. It is filed as cell-based. Conditions: Homo sapiens, PBMC, read-out: EC50 for increased PIM2 expression, whole blood treated overnight ex vivo. Here is the method: The effects of INCB053914 on pBAD, pp70S6K, and p4E-BP1 levels and on the expression of PIM isozymes also were assessed ex vivo in primary bone marrow blasts (Stem Cell and Xenograft Core, University of Pennsylvania, Philadelphia, Pennsylvania) or in peripheral blood mononuclear cells (PBMCs) derived from whole blood samples obtained with informed written consent from adult patients with AML enrolled in an ongoing phase 1/2 dose-escalation trial, which was conducted in accordance with the study protocol approved by the respective institutional review boards or independent ethics committees. Only samples initially containing >90% viable cells were used (assessed by Trypan Blue staining). Immediately after thawing, the blasts were cultured in RPMI + 10% FBS with INCB053914 for 2 hours at 37°C, before lysis. For determinations of PIM2 expression in PBMCs, whole blood samples were treated overnight with increasing concentrations of INCB053914; total PBMCs were isolated by Ficoll-Paque density gradient centrifugation before lysis. The levels of PIM isozymes and phosphoproteins in cell lysates were detected by Western blotting using the same primary antibodies as above.

The subject of test [2] is pBAD, pSTAT3 and MYC in INA-6 (MM) tumors. Put plainly: pBAD, pSTAT3 and MYC levels in INA-6 (MM) tumors. Format: in vivo, mouse. Particulars: INA-6 (MM) tumors in mice. Here is the method:
The PI3Kδ inhibitor INCB050465 (10 mg/kg once a day orally) was evaluated in combination with INCB053914 (30 mg/kg once a day orally) in mice bearing Pfeiffer (DLBCL) xenografts, a model sensitive to PI3Kδ inhibition (eight mice/group). Cytarabine was administered via intraperitoneal injection at a standard dose of 20 mg/kg twice a week, in combination with oral INCB053914 at a submaximally efficacious dose of 20 mg/kg twice a day for 12 days in mice bearing human KG-1 AML xenografts, a cytarabine-sensitive model (eight mice/group). The oral JAK1-selective inhibitor itacitinib (60 mg/kg twice a day orally) was assessed in combination with INCB053914 (100 mg/kg twice a day orally) after 8 days of administration to SCID mice bearing INA-6 (MM) xenografts (eight mice/group), a model sensitive to JAK inhibition.

pEC50, pIC50: −log10 of the molar value.

EPHB4, sequence (P54760 16-987): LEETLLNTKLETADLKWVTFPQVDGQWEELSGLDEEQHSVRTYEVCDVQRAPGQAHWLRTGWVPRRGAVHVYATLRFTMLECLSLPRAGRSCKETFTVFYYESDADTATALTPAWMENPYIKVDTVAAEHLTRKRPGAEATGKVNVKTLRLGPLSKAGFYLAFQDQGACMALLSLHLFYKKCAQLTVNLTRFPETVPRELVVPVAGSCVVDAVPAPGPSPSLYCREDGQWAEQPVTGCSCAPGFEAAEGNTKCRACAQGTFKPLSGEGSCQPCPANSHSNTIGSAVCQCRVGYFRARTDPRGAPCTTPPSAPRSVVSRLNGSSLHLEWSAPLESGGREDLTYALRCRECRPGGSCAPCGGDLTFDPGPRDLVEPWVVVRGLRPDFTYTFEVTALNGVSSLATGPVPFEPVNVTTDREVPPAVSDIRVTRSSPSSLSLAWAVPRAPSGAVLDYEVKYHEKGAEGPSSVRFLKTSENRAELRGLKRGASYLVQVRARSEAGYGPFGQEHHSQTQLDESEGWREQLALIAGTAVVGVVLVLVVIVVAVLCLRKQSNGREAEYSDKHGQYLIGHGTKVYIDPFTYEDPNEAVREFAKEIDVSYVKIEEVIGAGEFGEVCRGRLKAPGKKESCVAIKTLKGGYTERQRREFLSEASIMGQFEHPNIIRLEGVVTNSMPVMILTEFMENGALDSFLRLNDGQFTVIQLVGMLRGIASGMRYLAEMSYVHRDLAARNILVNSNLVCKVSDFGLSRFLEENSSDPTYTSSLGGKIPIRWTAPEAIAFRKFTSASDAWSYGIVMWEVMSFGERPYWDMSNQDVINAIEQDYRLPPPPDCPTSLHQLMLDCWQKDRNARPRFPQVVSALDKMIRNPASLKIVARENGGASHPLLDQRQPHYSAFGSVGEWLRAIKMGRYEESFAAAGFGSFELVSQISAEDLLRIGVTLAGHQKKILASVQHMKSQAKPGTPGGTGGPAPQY
PIM1, sequence (P11309 whole entry): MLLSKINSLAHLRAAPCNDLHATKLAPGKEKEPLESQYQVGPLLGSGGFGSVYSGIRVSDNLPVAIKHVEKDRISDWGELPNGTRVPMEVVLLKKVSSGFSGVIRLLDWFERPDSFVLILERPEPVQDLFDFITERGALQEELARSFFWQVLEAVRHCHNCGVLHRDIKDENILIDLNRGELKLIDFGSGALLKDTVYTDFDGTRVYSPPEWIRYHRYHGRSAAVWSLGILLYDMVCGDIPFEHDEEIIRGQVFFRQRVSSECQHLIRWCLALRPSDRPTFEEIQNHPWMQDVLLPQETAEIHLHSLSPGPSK

For the compound `C[C@H]1CN(c2c(NC(=O)c3ccc(F)c(-c4c(F)cccc4F)n3)cnc3c2CC[C@H]3O)C[C@@H](N)[C@@H]1O.O=P(O)(O)O` [INCB053914, N-((R)-4-((3R,4R,5S)-3-amino-4-hydroxy-5-methylpiperidin-1-yl)-7-hydroxy-6,7-dihydro-5H-cyclopenta[b]pyridin-3-yl)-6-(2,6-difluorophenyl)-5-fluoropicolinamide phosphate], the negative-log IC50 (pIC50) (usually the IC50 on a negative log10 scale, so that one unit is a factor of ten) at PIM1 is 9.62; at RSK2 ([ATP] = 1 mM), 5.15; against RSK2 (as given in the text), 5.15; at BRAF, less than 4.70; on CAMK2D, less than 4.70; against CHEK1 it was less than 4.70. The pIC50 on EPHB4, against MINK, at NLK, against PAK4 and on RPS6KB1 was less than 4.70 in each case. The “phosphorylation of downstream PIM kinase substrates (p70S6K/S6 and 4E-BP1)” value in test [1] was “inhibited the phosphorylation of downstream PIM kinase substrates (p70S6K/S6 and 4E-BP1) in a dose-dependent manner”. Further, in the test on PIM2 expression in PBMCs, the pEC50 (usually the EC50 on a negative log10 scale, so that one unit is a factor of ten) is 6.94. Moreover, the MYC levels entry in [2] is “decreased MYC levels”. Further, the “level of pBAD” value in [2] is on record as “decrease”.
